Square brackets hold non-standard residues; d marks the D form. Peptide text beside a SMILES is read from it. * marks the point of attachment. ξ: configuration not given here. Hydrocinnamoyl = O=C(CCc1ccccc1)*; Thz = O=C(O)[C@@H]1CSCN1; Cbz = O=C(OCc1ccccc1)*; ξPip = O=C(O)C1CCCCN1; CH2Cl = ClC*
Target: T1, prolyl endopeptidase (Bos taurus, UniProt Q9XTA2)
T1 construct: purified from bovine brain; from tissue; host or cells: bovine brain
Assay: Prolyl endopeptidase inhibitory activity in vitro
Type: biochemical, bovine
Conditions: not given
Procedure: Inhibitory activity of prolyl endopeptidase in vitro was measured by the following test system.
A mixed solution of 20 mM tris-HCl buffer (pH 7.5; 935 μl; containing 10 mM EDTA and 10 mM mercaptoethanol), a solution of a compound of the present invention in DMSO (10 μl) and a solution of prolyl endopeptidase which was purified from bovine brain (0.13 unit; prepared by the method described in J. Biochem., 94, 1179 (1983)) in tris-HCl buffer (15 μl) was preincubated for 15 mins at 37° C.
To the solution, 5 mM of N-benzyloxycarbonyl-glycyl-prolyl-p-nitroanilide (40 μl) in a mixture of 40% dioxane--60% water was added. Ths solution was incubated for 1 min at the same temperature.
Optical absorption (a1) at 405 nm of the solution, and optical absorption (a2) at 405 nm of the solution after more 30 mins' incubation at 37° C. were measured.
Optical absorptions (b1 and b2) of the solutions using DMSO instead of the solution of the compound of the present invention were also measured.
Inhibitory ratio was calculated by the following expression and IC50 (required concentration for 50% inhibition) was obtained (See Protein, Nucleic acid and Enzyme 25(6), 513, 1980.). [formula]

T1 sequence (Q9XTA2 whole entry): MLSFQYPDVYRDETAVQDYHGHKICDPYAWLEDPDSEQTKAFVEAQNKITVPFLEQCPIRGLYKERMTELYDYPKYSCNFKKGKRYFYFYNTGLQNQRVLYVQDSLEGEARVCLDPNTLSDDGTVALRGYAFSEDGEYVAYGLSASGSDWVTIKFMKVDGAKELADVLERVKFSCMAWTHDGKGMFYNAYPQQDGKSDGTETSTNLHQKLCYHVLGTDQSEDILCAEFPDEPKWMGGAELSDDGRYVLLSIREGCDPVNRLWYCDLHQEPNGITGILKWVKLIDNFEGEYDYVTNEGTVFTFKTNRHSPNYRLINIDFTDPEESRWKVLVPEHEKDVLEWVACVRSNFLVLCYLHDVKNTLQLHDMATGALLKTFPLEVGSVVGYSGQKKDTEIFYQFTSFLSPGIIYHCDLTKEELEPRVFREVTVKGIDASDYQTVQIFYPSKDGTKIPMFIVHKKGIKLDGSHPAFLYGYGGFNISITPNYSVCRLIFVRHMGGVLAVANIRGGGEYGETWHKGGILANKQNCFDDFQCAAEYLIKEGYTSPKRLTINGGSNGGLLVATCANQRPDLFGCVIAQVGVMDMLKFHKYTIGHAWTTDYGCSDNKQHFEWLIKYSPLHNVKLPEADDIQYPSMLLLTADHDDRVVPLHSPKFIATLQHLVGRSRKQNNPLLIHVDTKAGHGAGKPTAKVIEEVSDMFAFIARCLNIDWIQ

Question: Which IC50 does the source give for O=C[C@@H]1CSCN1C(=O)/C=C/c1ccc(CCCCCc2ccccc2)cc1 [1 (g), (4R)3-[4-(5-phenylpentyl)cinnamoyl]thiazolidin-4-al] here?
Answer: Its IC50 is 4800 nM.

Same assay, conditions: in vitro; purified from bovine brain; pH 7.5, 37° C.; substrate N-benzyloxycarbonyl-glycyl-prolyl-p-nitroanilide; 405 nm; read-out: Concentration for 50% inhibition IC50

Question: With O=C[C@@H]1CSCN1C(=O)C1CCCC1C(=O)NCc1ccccc1 (stereo partly drawn) [1 (v), (4R)3-[2-[Nbenzylcarbamoyl)cyclopentanecarbonyl]thiazolidin-4-al] as the compound, how does the IC50 read?
Answer: The IC50 was 83 nM.

Question: Which IC50 does the source give for O=C[C@@H]1CSCN1C(=O)C1CCC[C@H]1C(=O)CCc1ccccc1 (stereo partly drawn) [1 (l), (4R)3-[(2R)2-(3-phenylpropionyl)cyclopentanecarbonyl]thiazolidin-4-al] here?
Answer: Its IC50 is 22 nM.

Question: For COc1ccc(CNC(=O)CCC(=O)N2CSC[C@H]2C=O)cc1 [1 (t), (4R)3-[3-[N(4-methoxybenzyl)carbamoyl]propionyl]thiazolidin-4-al], which IC50 is on record?
Answer: The IC50 was 35 nM.

Question: Which IC50 does the source give for O=C[C@@H]1CSCN1C(=O)CCC(=O)CCCc1ccccc1 [1 (k), (4R)3-(4-oxo-7-phenylheptanoyl) thiazolidin-4-al] here?
Answer: The IC50 was 16 nM.

Question: Which IC50 does the source give for O=C[C@@H]1CSCN1C(=O)C1CCCCN1C(=O)CCc1ccccc1 (stereo partly drawn) [1 (n), (4R)3-[1-(3-phenylpropionyl)piperidine-2-carbonyl]thiazolidin-4-al] (Hydrocinnamoyl-[ξPip]-[Thz]-aldehyde) here?
Answer: Its IC50 is 20 nM.

Question: With O=C[C@@H]1CSCN1C(=O)CCC(=O)N(Cc1ccccc1)c1ccccc1 [1 (s), (4R)3-[3-(Nbenzyl-Nphenylcarbamoyl)propionyl]thiazolidin-4-al] as the compound, how does the IC50 read?
Answer: Its IC50 is 6.8 nM.

Question: With O=C[C@@H]1CSCN1C(=O)CCCCCCCCCc1ccccc1 [1 (b), (4R)3-(10-phenyldecanoyl) thiazolidin-4-al] as the compound, how does the IC50 read?
Answer: Its IC50 is 730 nM.

Question: For CC(C)C(CCCCCc1ccccc1)C(=O)N1CSC[C@H]1C=O (stereo partly drawn) [1 (c), (4R)3-(2-isopropyl-7-phenylheptanoyl)thiazolidin-7-al], which IC50 is on record?
Answer: The IC50 was 87 nM.

Question: With O=C[C@@H]1CSCN1C(=O)CCCOCc1ccccc1 [1 (i), (4R)3-(4-benzyloxybutyryl) thiazolidin-4-al] as the compound, how does the IC50 read?
Answer: Its IC50 is 8100 nM.

Question: Which IC50 does the source give for CC(C)C(NC(=O)CCCc1ccccc1)C(=O)N1CSC[C@H]1C=O (stereo partly drawn) [1 (q), (4R)3-[2-(4-phenylbutyrylamino)-3-methylbutyryl]thiazolidin-4-al] here?
Answer: The IC50 was 5.7 nM.

Test system: prolyl endopeptidase
Assay: not given
Conditions: See J. Neurochem., 41, 69(1983); cited from earlier work

Question: For O=C(NCC(=O)N1CCC[C@H]1C(=O)CCl)OCc1ccccc1 [N-benzyloxycarbonyl-glycyl-L-prolyl-chloromethane] (Cbz-Gly-Pro-CH2Cl), which “inhibition of prolyl endopeptidase (in words)” value is on record?
Answer: The value was “strongly inhibit”.

— US4857537A, “Novel thiazolidine derivatives” (Ono Pharmaceutical Co., Ltd., priority 1987, dated 1989)
